Data as given in ChEMBL document CHEMBL4340548, “Pyridone-containing phenalenone-based photosensitizer working both under light and in the dark for photodynamic therapy” (Bioorg Med Chem, 2019).
Active and inactive are the calls of the source. The rule behind the calls is not given here.

What was measured:
[1] = Induction of singlet oxygen generation in acetonitrile irradiated with blue light assessed as singlet oxygen quantum yield at 30 uM using ABDA by UV spectrophotometry; format: functional
HeLa [2] = experiment: Photodynamic cytotoxicity in human HeLa cells assessed as reduction in cell viability incubated in blue light for 5 mins every 1.5 hrs for 8 repeated cycles further incubation under dark for 24 hrs by MTT assay; format: functional; conditions: light or radiation study
[3] = Induction of singlet oxygen generation in water irradiated with blue light assessed as singlet oxygen quantum yield at 30 uM using ABDA by UV spectrophotometry; format: functional
[4] = Induction of singlet oxygen generation at 50 uM under blue light irradiation at 60 degC by ABDA based singlet oxygen trap assay; format: functional
[5] = Induction of singlet oxygen generation at 50 uM under irradiation at 20 degC for 5 mins and dark at 37 degC fro 30 mins for several cycles by ABDA based singlet oxygen trap assay; format: functional
HeLa [6] = experiment: Induction of apoptosis in human HeLa cells at 1 uM incubated for 3 hrs irradiated with blue light in presence of sodium azide by DAPI-Annexin V-PE staining based confocal microscopic analysis; format: functional, cell-based
[7] = Photostability in acetonitrile assessed as PPN-EPO formation at 50 uM irradiated with light for 2.5 hrs by UV spectrophotometry
HeLa [8] = experiment: Induction of ROS generation in human HeLa cells irradiated with blue light at 1 uM incubated for 30 mins by DCFH-DA dye-based confocal microscopic analysis; format: functional, cell-based
HeLa [9] = experiment: Induction of ROS generation in human HeLa cells under dark condition at 1 uM incubated for 30 mins at 37 degC by DCFH-DA dye-based confocal microscopic analysis; format: cell-based; conditions: 0.5 h
HeLa [10] = experiment: Induction of ROS generation in human HeLa cells irradiated with blue light at 1 uM incubated for 30 mins in presence of sodium azide by DCFH-DA dye-based confocal microscopic analysis; format: functional, cell-based
[11] = Induction of singlet oxygen generation at 50 uM under blue light irradiation at 25 degC by ABDA based singlet oxygen trap assay; format: functional
HeLa [12] = experiment: Induction of apoptosis in human HeLa cells at 1 uM incubated for 3 hrs irradiated with blue light by DAPI-Annexin V-PE staining based confocal microscopic analysis; format: functional, cell-based
[13] = Induction of singlet oxygen generation at 50 uM under dark condition at 37 degC by ABDA based singlet oxygen trap assay; format: functional
[14] = Photostability in acetonitrile assessed as decrease in absorbance of pyridone moiety at 50 uM irradiated with light for 2.5 hrs by UV spectrophotometry
[15] = Photostability in acetonitrile assessed as singlet oxygen formation by measuring pyridone moiety band at 50 uM at 37 degC irradiated with light for 2.5 hrs by UV spectrophotometry
[16] = Induction of singlet oxygen generation at 50 uM under irradiation incubated for 15 mins by 1H-NMR spectroscopy; format: functional

SMILES	Activity [1]	CC50 (HeLa [2]) [nM]	Activity [3]	Activity [4]	Activity [5]	Activity (HeLa [6])	Stability [7]	Activity (HeLa [8])	Activity (HeLa [9])	Activity (HeLa [10])	Activity [11]	Activity (HeLa [12])	Activity [13]	Stability [14]	Stability [15]	Activity [16]
O=C1C(c2ccc(CN3C(=O)C4C=CC3OO4)cc2)=Cc2cccc3cccc1c23 (centres undefined)	0.71	71.5	0.16													
O=C1C(c2ccc(Cn3ccccc3=O)cc2)=Cc2cccc3cccc1c23	0.64	26.5	0.12	Active	Active	inactive	Unstable	Active	Non-Toxic	Active	inactive	Active	Active	Unstable	Stable	Active
